From US12419879B2, “Combination therapy for the treatment of pancreatic cancer” (Genentech, Inc., priority 2016, dated 2025) come the findings set out here.

The test system of one experiment is KP4 cells. Put plainly: Small molecule inhibitor screen of KP4 cells in 2D monolayer and 3D spheroid cultures. Type of experiment: cell-based, human. To be noted: 2D monolayer vs 3D spheroid. The procedure:
Cell viability assays were performed by treating cells with a dose titration (0.001 to 10 μM) or fixed dose (1 μM) of the various pharmacologic inhibitors for 72 hrs and measuring viability using CellTiter Glo (Promega). Bliss scores were calculated as described previously. (Borisy A A, Elliott P J, Hurst N W, Lee M S, Lehar J, Price E R, Systematic discovery of multicomponent therapeutics, Proceedings of the National Academy of Sciences of the United States of America, 2003; 100(13):7977-82, Epub 2003/06/12).
To compare how pancreatic cancer cells cultured in 2-dimensional (2D) and 3-dimensional (3D) cultures respond to various cancer therapeutic agents, we treated the KAS mutant PDAC cancer cell line KP4 with a panel of 203 small molecule inhibitors of cancer-relevant targets and known chemotherapeutics (Table 1).
For 3D cultures, described herein is a method to facilitate a relatively rapid “high-throughput” analysis. […] Their drug sensitivity pattern was also similar to previously described spheroids (FIGS. 28 & 29).

The subject of a further experiment is xenograft tumors. Put plainly: Histopathology, IHC/IF staining and immunoblotting of grafted tumors. Type of experiment: in vivo, mice. On the procedure: Cells were seeded in 10 cm dishes and treated with 1 μM of small molecule inhibitors for 24 hrs. Cell lysates were prepared in RIPA lysis buffer (Thermo Scientific) containing a protease inhibitor cocktail (Thermo Scientific), SDS-PAGE was performed and proteins were transferred to nitrocellulose membranes. Immunoblotting was performed using standard methods. Protein bands were quantified using ImageJ software. Primary antibodies: p-Erk, p-STAT3, p-S6, total-S6, p-PDGFRα, p-PDGFRβ, p-RSK3, cleaved PARP, Bcl-xL, Mcl, survivin, Rab11, p-Akt, β-Actin, GAPDH (Cell Signaling), total-STAT3, total-PDGFRα (Santa Cruz Biotechnology), p-EphA7 (Gene Tex) and p-EphA2/3, EphA2/5 (MyBioscource). Immunohistochemistry and immunofluorescence were performed on 4 μm thick sections cut from formalin-fixed paraffin-embedded cell pellets, whole tissue sections, and TMA blocks (US Biomax, Inc.). Slides were deparaffinized and antigen unmasking was performed on PT Module (Thermo Scientific) with Target Retrieval Solution (Dako). […] Antibody binding was detected using Vecstatin ABC Elite horseradish peroxidase (Vector Laboratories) or PowerVision Poly-HRP (Leica Biosystems) and metal-enhanced 3, 3′-diaminobenzidine (Pierce) for IHC stainings and PowerVision Poly-HRP (Leica Biosystems) along with TSA kits (Life Technologies) for immunofluorescence staining. […]

Another experiment deals with KP4 xenografts. In kind it is in vivo. The procedure:
(§1) All animal studies were carried out in compliance with National Institutes of Health Guide for the Care and Use of Laboratory Animals. […] Two xenograft models were used: the human PDAC-derived cell line KP4 and cells derived from tumors isolated from KPP GEMM mice. 5×10^6 cells were subcutaneously implanted into the right flanks of immune-deficient mice (Charles River Laboratories) without using any Matrigel. […] Tumor volumes were measured using Ultra-Cal IV calipers at the indicated intervals. To appropriately analyze the repeated measurement of tumor volumes from the same animals over time, a mixed modeling approach was used. (Jose Pinheiro D B, Saikat DebRoy, Deepayan Sarkar, R Core team. Linear and Nonlinear mixed effects models. Package ‘nlme’2008). This approach addresses both repeated measurements and modest dropouts due to any non-treatment-related deaths of animals before the study end. Cubic regression splines were used to fit a non-linear profile to time courses of log2 tumor volume at each dose level. These non-linear profiles were then related to the dose within the mixed model.
(§2) To determine the uncertainty intervals (UIs) for % TGI, the fitted curve and the fitted covariance matrix were used to generate a random sample as an approximation to the distribution of % TGI. […] The reported UIs were the values for which 95% of the time the recalculated values of % TGI would fall in this region given the fitted model. The 2.5 and 97.5 percentiles of the simulated distribution were used as the upper and lower UIs. Tumor growth inhibition >60% was considered meaningful. (Wong H, Choo E F, Alicke B, Ding X, La H, McNamara E, Antitumor activity of targeted and cytotoxic agents in murine subcutaneous tumor models correlates with clinical response, Clinical Cancer Research: an official journal of the American Association for Cancer Research, 2012; 18(14):3846-55. Epub 2012/06/01).
(§3) Plotting was performed and generated using R, version 2.8.1 (R Development Core Team 2008; R Foundation for Statistical Computing; Vienna, Austria) and Excel, version 12.0.1 (Microsoft Corporation). Data were analyzed using R, version 2.8.1, and the mixed models were fit within R using the nlme package, version 3.1-89 (41).

The test system of a further experiment is KPP xenografts. Type of experiment: in vivo. To be noted: cobimetinib 5 mg/kg and/or ponatinib 30 mg/kg, PO, QD; for Tumor volume (last day): in mm³ (unit assumed). On the procedure: as §1, §2, §3
For experiment [1], the system named is serum growth factors and cytokines. Put plainly: Luminex assay / ELISA of plasma samples of KP4 xenograft mice. In kind it is in vivo. For orientation: In an ELISA, binding on a coated surface is turned into a signal by an enzyme label.
Another experiment relates to PDAC cell lines. Put plainly: Cell viability assay (CellTiter Glo) with Bliss analysis in PDAC cell lines, 2D and 3D. In kind it is cell-based, human. On the procedure:
Cell viability assays were performed by treating cells with a dose titration (0.001 to 10 μM) or fixed dose (1 μM) of the various pharmacologic inhibitors for 72 hrs and measuring viability using CellTiter Glo (Promega). Bliss scores were calculated as described previously.
(ATP-based viability assays read luminescence as a measure of living cells.)

Another experiment concerns IL-6 secretion. Put plainly: IL-6 secretion in 2D culture supernatants of PDAC cell lines. Type of experiment: cell-based, human. To be noted: multiple PDAC cell lines, 24 hrs.
In experiment [2] the test system is PDGFRα, S6 and STAT3 activation. Put plainly: Western blot of signaling proteins in PDAC cells (2D and 3D). To be noted: KP4 cells. In kind it is cell-based, human. The procedure: Cells were seeded in 10 cm dishes and treated with 1 μM of small molecule inhibitors for 24 hrs. Cell lysates were prepared in RIPA lysis buffer (Thermo Scientific) containing a protease inhibitor cocktail (Thermo Scientific), SDS-PAGE was performed and proteins were transferred to nitrocellulose membranes. Immunoblotting was performed using standard methods. Protein bands were quantified using ImageJ software. Primary antibodies: p-Erk, p-STAT3, p-S6, total-S6, p-PDGFRα, p-PDGFRβ, p-RSK3, cleaved PARP, Bcl-xL, Mcl, survivin, Rab11, p-Akt, β-Actin, GAPDH (Cell Signaling), total-STAT3, total-PDGFRα (Santa Cruz Biotechnology), p-EphA7 (Gene Tex) and p-EphA2/3, EphA2/5 (MyBioscource).
(A western blot detects proteins with antibodies after separation by electrophoresis.)

Setting [3] is: cobimetinib 5 mg/kg and/or ponatinib 30 mg/kg, PO, QD.

In the case of `Cn1cnc2c(F)c(Nc3ccc(Br)cc3Cl)c(C(=O)NOCCO)cc21` [AZD6244], the “differential sensitivity of 3D versus 2D cultures” value (shortened to “differential sensitivity”) with KP4 cells is on record as “more effective on 3D cultures than the 2D cultures”.

For the molecule `O=C(c1ccc(F)c(F)c1Nc1ccc(I)cc1F)N1CC(O)([C@@H]2CCCCN2)C1` [Cobimetinib], the “p-PDGFRα, p-STAT3 and pS6 in grafted tumors” value in the experiment on xenograft tumors was “induction”. Moreover, in the experiment with KP4 xenografts, the “effect on tumor growth (in words)” value is listed as “ineffective as single agents”. In the experiment with KP4 xenografts (setting [3]), the “% TGI (AUC vs. Vehicle)” value is on record as 70%; the “TTP 2X (Time to Tumor Progression, 2X original volume)” value (from here on “TTP 2X”) was 13; the Tumor volume (last day) stood at 532 mm³. Moreover, in the experiment on KPP xenografts, the “% TGI (AUC vs. Vehicle)” value was determined as 31%; the “TTP 2X” value came to 6.5; the “Tumor volume (last day)” value was 917. Moreover, the “serum growth factor and cytokine levels” value in experiment [1] is “Significantly elevated serum levels of PDGFα, PDGFβ, and increased levels of IL-6”. Also, the “effect on cell viability as single agents” value with PDAC cell lines was “no effect on cell viability”. In addition, the “secretion of IL-6” value in the experiment with IL-6 secretion is on record as “increased secretion of the IL-6 ligand”. In addition, the “differential sensitivity” value in the experiment on KP4 cells is reported as “more effective on 3D cultures than the 2D cultures”. Besides, the “activation of p-PDGFRα, p-STAT3 and p-S6 (western blot)” value in experiment [2] is recorded as “increased level of activation”.

For `O=C(NOCCO)c1ccc2cncn2c1Nc1ccc(I)cc1F` [GDC-0623], the “differential sensitivity” value with KP4 cells is “more effective on 3D cultures than the 2D cultures”.

Turning to `CS(=O)(=O)N1CCN(Cc2cc3nc(-c4cccc5[nH]ncc45)nc(N4CCOCC4)c3s2)CC1` [GDC-0941], the “differential sensitivity” value in the experiment with KP4 cells is on record as “more effective on 3D cultures than the 2D cultures”.

As for `Cc1c(CN2CCN(C(=O)[C@H](C)O)CC2)sc2c(N3CCOCC3)nc(-c3cnc(N)nc3)nc12` [GDC-0980], the “differential sensitivity” value in the experiment with KP4 cells is reported as “more effective on 3D cultures than the 2D cultures”.

In the case of `O=C(NOC[C@H](O)CO)c1ccc(F)c(F)c1Nc1ccc(I)cc1F` [PD901], in the experiment with KP4 cells, the “differential sensitivity” value was “more effective on 3D cultures than the 2D cultures”.

For the molecule `Cc1ccc(C(=O)Nc2ccc(CN3CCN(C)CC3)c(C(F)(F)F)c2)cc1C#Cc1cnc2cccnn12` [Ponatinib], the “effect on tumor growth (in words)” value in the experiment with KP4 xenografts is “ineffective as single agents”. Moreover, in the experiment on KP4 xenografts (setting [3]), the “TTP 2X” value is recorded as 8.5 and the Tumor volume (last day) is 408 mm³. In the experiment on KPP xenografts, the “TTP 2X” value worked out at 7 and the “Tumor volume (last day)” value was 1045. In addition, the “effect on cell viability as single agents” value with PDAC cell lines is “no effect on cell viability”.
